What was measured:
CYP3A4/5 [1] = target: T1, CYP3A4/5 (Homo sapiens, UniProt P08684+P20815); assay: Time dependent inhibition of CYP3A4/5 (unknown origin) at 30 uM measured after 30 mins relative to control; type: protein assay; settings: read-out: TDI
CYP3A4/5 [2] = target: T1, CYP3A4/5; assay: Time dependent inhibition of CYP3A4/5 (unknown origin) assessed as remaining activity at 30 uM relative to control; type: protein assay; settings: read-out: Activity
physchem = settings: octanol/water
[3] = target: Epidermal growth factor receptor (Homo sapiens, UniProt P00533, C797S/L858R/T790M); assay: Binding affinity to EGFR L858R/T790M/C797S mutant (unknown origin) assessed as inhibition constant incubated for 30 mins in presence of ATP by Real-time fluorescence based analysis
[4] = target: Epidermal growth factor receptor (Homo sapiens, UniProt P00533); assay: Binding affinity to wild type EGFR (unknown origin) assessed as inhibition constant incubated for 30 mins in presence of ATP by Real-time fluorescence based analysis
CYP3A4/5 [5] = target: T1, CYP3A4/5; assay: Time dependent inhibition of CYP3A4/5 (unknown origin) in presence of NADPH; type: ADME, protein assay
CYP3A4/5 [6] = target: T1, CYP3A4/5; assay: Time dependent inhibition of CYP3A4/5 (unknown origin) in absence of NADPH; type: ADME, protein assay
CYP3A4/5 [7] = target: T1, CYP3A4/5; assay: Time dependent inhibition of CYP3A4/5 (unknown origin) at 30 uM measured after 10 mins relative to control; type: ADME, protein assay; settings: read-out: TDI
CYP3A4/5 [8] = target: T1, CYP3A4/5; assay: Reversible inhibition of CYP3A4/5 (unknown origin) at 30 uM relative to control; type: ADME, protein assay

Chain of Epidermal growth factor receptor (Homo sapiens, UniProt P00533) (P00533 whole entry): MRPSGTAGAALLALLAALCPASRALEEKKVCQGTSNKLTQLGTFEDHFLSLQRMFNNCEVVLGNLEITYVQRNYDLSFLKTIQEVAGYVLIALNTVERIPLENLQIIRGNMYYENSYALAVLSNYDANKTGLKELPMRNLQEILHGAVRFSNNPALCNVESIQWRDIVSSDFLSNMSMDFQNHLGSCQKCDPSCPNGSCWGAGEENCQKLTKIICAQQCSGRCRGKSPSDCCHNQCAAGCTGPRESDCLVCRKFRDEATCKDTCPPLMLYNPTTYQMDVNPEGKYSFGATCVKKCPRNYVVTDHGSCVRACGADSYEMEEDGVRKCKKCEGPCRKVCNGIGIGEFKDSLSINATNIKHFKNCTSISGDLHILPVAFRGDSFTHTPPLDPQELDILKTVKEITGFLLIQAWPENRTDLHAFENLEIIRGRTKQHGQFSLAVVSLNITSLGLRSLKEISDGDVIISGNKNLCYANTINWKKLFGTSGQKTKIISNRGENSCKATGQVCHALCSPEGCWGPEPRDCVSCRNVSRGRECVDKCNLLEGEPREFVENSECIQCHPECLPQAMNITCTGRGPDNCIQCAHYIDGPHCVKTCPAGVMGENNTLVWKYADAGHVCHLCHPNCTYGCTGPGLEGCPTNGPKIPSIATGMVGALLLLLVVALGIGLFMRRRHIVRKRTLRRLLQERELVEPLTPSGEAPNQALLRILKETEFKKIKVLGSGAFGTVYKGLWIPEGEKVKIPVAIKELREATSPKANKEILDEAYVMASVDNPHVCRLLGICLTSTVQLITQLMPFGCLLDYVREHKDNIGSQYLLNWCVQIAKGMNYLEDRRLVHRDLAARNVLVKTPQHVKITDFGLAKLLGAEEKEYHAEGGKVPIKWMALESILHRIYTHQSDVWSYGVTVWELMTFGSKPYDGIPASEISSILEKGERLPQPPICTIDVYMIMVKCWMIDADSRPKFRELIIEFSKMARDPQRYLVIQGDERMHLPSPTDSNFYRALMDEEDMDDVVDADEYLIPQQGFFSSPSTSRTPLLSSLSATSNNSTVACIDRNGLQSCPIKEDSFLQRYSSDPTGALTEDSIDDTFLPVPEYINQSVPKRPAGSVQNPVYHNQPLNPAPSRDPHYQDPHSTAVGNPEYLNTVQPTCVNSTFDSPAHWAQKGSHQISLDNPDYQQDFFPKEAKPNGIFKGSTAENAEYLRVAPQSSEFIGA
Chain of Epidermal growth factor receptor (Homo sapiens, UniProt P00533, C797S/L858R/T790M) (P00533 25-1210 T790M/C797S/L858R limits assumed): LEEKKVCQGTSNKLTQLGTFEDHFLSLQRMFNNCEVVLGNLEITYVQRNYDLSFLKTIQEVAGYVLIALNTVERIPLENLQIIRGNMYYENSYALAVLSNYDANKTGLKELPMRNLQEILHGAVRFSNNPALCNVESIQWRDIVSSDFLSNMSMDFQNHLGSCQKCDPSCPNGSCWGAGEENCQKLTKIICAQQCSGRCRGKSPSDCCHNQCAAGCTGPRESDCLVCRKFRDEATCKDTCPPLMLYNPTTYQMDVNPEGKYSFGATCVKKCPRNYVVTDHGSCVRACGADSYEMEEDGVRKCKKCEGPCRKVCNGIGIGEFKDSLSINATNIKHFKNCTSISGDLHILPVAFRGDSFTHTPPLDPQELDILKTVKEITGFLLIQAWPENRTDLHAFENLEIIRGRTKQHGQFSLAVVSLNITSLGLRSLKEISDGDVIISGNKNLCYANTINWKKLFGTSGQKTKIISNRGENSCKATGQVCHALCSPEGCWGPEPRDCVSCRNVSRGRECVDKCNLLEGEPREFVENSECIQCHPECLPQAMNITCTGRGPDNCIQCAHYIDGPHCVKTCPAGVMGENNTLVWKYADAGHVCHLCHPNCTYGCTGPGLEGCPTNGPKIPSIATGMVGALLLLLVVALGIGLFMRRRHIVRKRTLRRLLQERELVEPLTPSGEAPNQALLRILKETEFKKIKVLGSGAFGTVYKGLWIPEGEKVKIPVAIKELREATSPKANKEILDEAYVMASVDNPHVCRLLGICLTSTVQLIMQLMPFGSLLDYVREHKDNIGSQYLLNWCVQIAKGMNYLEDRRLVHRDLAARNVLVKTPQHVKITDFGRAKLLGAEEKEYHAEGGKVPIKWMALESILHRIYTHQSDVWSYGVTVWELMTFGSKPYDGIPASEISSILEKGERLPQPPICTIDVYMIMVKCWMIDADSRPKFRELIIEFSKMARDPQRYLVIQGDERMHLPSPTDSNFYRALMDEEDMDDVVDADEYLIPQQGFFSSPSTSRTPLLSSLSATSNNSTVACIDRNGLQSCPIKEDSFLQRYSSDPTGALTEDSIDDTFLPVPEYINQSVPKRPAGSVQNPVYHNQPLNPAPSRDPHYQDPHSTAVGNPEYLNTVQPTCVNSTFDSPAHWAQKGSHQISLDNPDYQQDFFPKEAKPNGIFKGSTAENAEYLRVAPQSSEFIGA

Structure (SMILES)	inhibition at 0.5 h, 30 µM (CYP3A4/5 [1]) [%]	activity at 30 µM (CYP3A4/5 [2]) [%]	logD at 3 h (physchem)	Ki [3] [nM]	also measured
CO[C@@H]1CCN(c2nccc(Nc3cc4n(C5CCC6(CC5)OCCO6)c(C(=O)NCC5CN(C)C5)cn4n3)n2)C[C@@H]1F	26	> 99	–	–	–
COC1CCN(c2nccc(Nc3cc4n(C5CC5)c(C)cn4n3)n2)CC1	–	–	3.37	950	Ki [4]: Not_active
CO[C@@H]1CCN(c2nccc(Nc3cc4n(C5CCC6(CC5)OCCO6)c(C#N)cn4n3)n2)C[C@@H]1F	50	78	–	–	–
CCc1cn2nc(Nc3ccnc(N4CC[C@@H](OC)[C@@H](F)C4)n3)cc2n1[C@H]1CC[C@]2(CCN(C)C2=O)CC1	55.8	65	–	–	–
COC1CCN(c2nccc(Nc3cc4n(C)c(C)cn4n3)n2)CC1	–	–	2.56	6100	Ki [4]: Not_active
CN1CCC2(CCC(n3c(C(F)(F)F)cn4nc(Nc5ccnc(N6CC[C@@H](O)[C@@H](F)C6)n5)cc34)CC2)C1=O (stereo partly drawn)	34	86	–	–	IC50 (CYP3A4/5 [5]): > 1400 nM; IC50 (CYP3A4/5 [6]): 22000 nM
COC1CCN(c2nccc(Nc3cc4n(C5CCC(=O)CC5)c(C)cn4n3)n2)CC1	–	–	2.27	27	Ki [4]: Not_active
CO[C@@H]1CCN(c2nccc(Nc3cc4n(C5CCC6(CC5)OCCO6)c(C)cn4n3)n2)C[C@@H]1F	52.4	57	–	–	IC50 (CYP3A4/5 [5]): 156000 nM; IC50 (CYP3A4/5 [6]): 820 nM; inhibition at 10 min, 30 µM (CYP3A4/5 [7]): 41.2%; inhibition at 30 µM (CYP3A4/5 [8]): 66%
Cc1cn2nc(Nc3ccnc(N4CC[C@@H](O)[C@@H](F)C4)n3)cc2n1C1C2CCCC1C2 (stereo partly drawn)	–	–	3.32	9.9	Ki ([4]; read-out: Ki): 1700 nM
O[C@@H]1CCN(c2nccc(Nc3cc4n(C5CCC6(CC5)OCCO6)c(C(F)(F)F)cn4n3)n2)C[C@@H]1F	8.3	25	–	–	IC50 (CYP3A4/5 [5]): 2300 nM; IC50 (CYP3A4/5 [6]): 5700 nM
CCNC(=O)c1cn2nc(Nc3ccnc(N4CC[C@@H](OC)[C@@H](F)C4)n3)cc2n1C1CCC2(CC1)OCCO2	64	98	–	–	–
CCc1cn2nc(Nc3ccnc(N4CC[C@@H](OC)[C@@H](F)C4)n3)cc2n1C1CCC2(CC1)OCCO2	34.9	39	–	–	–
CO[C@@H]1CCN(c2nccc(Nc3cc4n(C5CCC6(CC5)OCCO6)c(C(=O)NCC5CCN(C)CC5)cn4n3)n2)C[C@@H]1F	24	> 99	–	–	–

From ChEMBL document CHEMBL6074688, “Discovery of a Novel Mutant-Selective Epidermal Growth Factor Receptor Inhibitor Using an In Silico Enabled Drug Discovery Platform” (J Med Chem, 2024)
